Patent US6255497A, “Method for the inhibition of ALDH-I useful in the treatment of alcohol dependence or alcohol abuse” (priority 1998, dated 2001)

Columns and labels:
[1] = biological target: T1, ALDH-I (Homo sapiens, UniProt P05091); assay: Inhibition kinetics of ALDH-I, initial velocity method, formaldehyde as substrate; conditions: from Ki values of Table II
T1 sequence (P05091 18-517): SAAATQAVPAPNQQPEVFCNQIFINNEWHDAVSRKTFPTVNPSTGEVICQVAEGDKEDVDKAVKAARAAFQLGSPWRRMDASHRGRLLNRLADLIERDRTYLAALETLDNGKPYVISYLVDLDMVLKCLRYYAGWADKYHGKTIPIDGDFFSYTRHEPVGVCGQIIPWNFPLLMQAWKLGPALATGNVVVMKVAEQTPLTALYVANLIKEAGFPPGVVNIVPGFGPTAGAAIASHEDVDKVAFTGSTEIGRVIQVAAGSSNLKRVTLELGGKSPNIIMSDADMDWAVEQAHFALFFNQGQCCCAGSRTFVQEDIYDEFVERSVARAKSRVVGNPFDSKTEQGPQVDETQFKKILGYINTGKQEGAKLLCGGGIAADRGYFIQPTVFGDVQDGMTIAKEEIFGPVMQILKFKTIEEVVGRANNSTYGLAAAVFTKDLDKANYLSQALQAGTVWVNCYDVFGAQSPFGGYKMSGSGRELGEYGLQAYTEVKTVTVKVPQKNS
Experimental: The kinetic data were analyzed by standard graphical methods.

[2] = tested on: golden hamsters; assay: Effect of daidzin on free choice ethanol intake in golden hamsters; assay type: in vivo, golden hamster; conditions: 10 mg/day
Text: Hamsters were chosen as described in Example 4 based on previous reports that they display high ethanol intake and preference in comparison with several other mammalian species, and that this was correlated with differences in ethanol metabolism. Kulkosky and Cornell, 1979, supra.
The animals used in these experiments are adult male golden hamsters (outbred, Lakeview Lak: LVG[SYR]), purchased from Charles River Laboratories, Wilmington, Mass. 01887. Upon arrival, hamsters are housed (4 per cage) with ad libitum access to food and tap water in a room maintained at 23° C. on a 12/12 light/dark cycle (light on 0600-1800 hr.) for 1 week. Following this acclimation period, each hamster is transferred to an individual stainless steel metabolic cage (26×18×17.5 cm) with a wire mesh floor for the remainder of the experiment. Each cage is equipped with a stainless steel food hopper located on the right side of the front wall which was kept filled with food. Two 50 ml drinking bottles fitted with stainless steel sipper tubes are placed on the left side of the front wall. Under the sipper tubes are funnels which collect and direct spillage to tubes placed outside of the cages. Fluids are provided mainly during the dark cycle (1800-0800 hr.) and fluid intake is measured in the morning at the same time each day, for example, at 0800 hr. During this baseline period, for example, 8 days, two drinking solutions are provided for each animal. One is tap water; the other is a 30% v/v solution of ethanol (100% USP). The position of the two drinking bottles on each cage is alternated daily to prevent the development of positional preference.
In other experiments, subcutaneous administration is preferably omitted, and each hamster receives only daily oral administration by feeding as described herein. […] This decline in alcohol intake was accompanied by a concomitant increase in water intake.

[3] = Plasma drug concentration versus time after a single 10 mg dose; assay type: in vivo; conditions: golden hamster
Text: Five hours later the plasma concentrations of both inhibitors were still above […], far above their competitive inhibition constants for ALDH-I.

[4] = tested on: ADH isozymes; assay: Inhibition of ADH; assay type: biochemical, human
[5] = tested on: rats; conditions: subcutaneous in propylene glycol; cited from earlier work
[6] = tested on: mice; conditions: subcutaneous in propylene glycol; cited from earlier work
[7] = biological target: T2, ALDH-II (Homo sapiens, UniProt P00352); assay: Inhibition kinetics of ALDH-II, initial velocity method, formaldehyde as substrate
T2 sequence (P00352 1-501): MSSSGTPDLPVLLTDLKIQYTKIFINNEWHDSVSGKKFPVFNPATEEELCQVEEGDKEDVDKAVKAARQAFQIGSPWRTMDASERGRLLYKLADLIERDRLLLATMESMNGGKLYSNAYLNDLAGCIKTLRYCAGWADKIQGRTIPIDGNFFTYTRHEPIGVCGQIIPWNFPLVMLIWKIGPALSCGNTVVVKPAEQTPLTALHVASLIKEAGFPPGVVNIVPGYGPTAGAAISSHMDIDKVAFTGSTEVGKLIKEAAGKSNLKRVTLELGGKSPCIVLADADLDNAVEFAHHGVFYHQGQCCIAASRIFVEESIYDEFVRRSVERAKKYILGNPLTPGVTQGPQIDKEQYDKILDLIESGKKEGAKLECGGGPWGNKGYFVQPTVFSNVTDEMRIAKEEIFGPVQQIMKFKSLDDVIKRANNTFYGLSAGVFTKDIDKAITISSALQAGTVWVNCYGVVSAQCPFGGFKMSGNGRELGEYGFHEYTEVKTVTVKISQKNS
Experimental: The inhibition kinetics were studied by the initial velocity method (Dixon and Webb, 1979, Enzymes, 3rd ed., Longman, Great Britain). […] The initial reaction rates were measured in a pH 9.5 assay medium 0.1 11 in glycine-NaOH, 0. […] The enzyme reaction rates were followed by monitoring the production of NADH at 340 nm (ε-6.22 mM^-1 cm^-1) with a Varian Cary 219 spectrophotometer thermostated at 25° C. The kinetic data were analyzed by standard graphical methods.

O=c1c(-c2ccc(O)cc2)coc2cc(O[C@@H]3O[C@H](CO)[C@@H](O)[C@H](O)[C@H]3O)ccc12 [Daidzin, 7-glucoside of daidzein]
more effective inhibition of human ALDH-I than of human ALDH-II [1]: 500 fold
effect apparent after the first dose, hamster Number 9 [2]: fourth day after the first dose
start of decline of alcohol intake after the first dose, hamster Number 6 [2]: 2 days
total fluid intake during daidzin administration ([2]; hamster Number 6): slightly decreased
total water intake (water bottle plus water in ethanol mixture) ([2]; hamster Number 6): stayed nearly constant
time to maximal plasma concentration after injection ([3]; i.p.): within about an hour after injection
Cmax ([3]; plasma, ip, read-out: maximal plasma concentration): 6 µM
ADH inhibition [4]: inhibits the second but not the first step in human ethanol metabolism
antifebrile (hypothermic) effect [5]: no antifebrile (hypothermic) effect
spasmolytic effect [6]: no spasmolytic effect
Ki [7]: 20 µM
